Results reported in US8686050B2, “Diglycidic ether derivative therapeutics and methods for their use” (British Columbia Cancer Agency Branch, priority 2008, dated 2014).
Entries after “also recorded” stand apart in the source; their conditions may differ. Where a name gives a salt, the structure may show the parent alone.

What was measured:
LNCaP cells = assay: Androgen-dependent proliferation of LNCaP cells (BrdU incorporation); format: cell-based, human; settings: R1881 0.1 nM, 4 days; 185-9-2 5 μg/ml, bicalutamide 10 μM
Experimental: The prostate gland is an androgen-dependent organ where androgens are the predominant mitogenic stimulus (Isaacs J T, Scott W W, Coffey D S., Prog Clin Biol Res. 1979; 33:133-44). This dependency on androgens provides the underlying rationale for treating prostate cancer with chemical or surgical castration. […] BrdU incorporation was measured 4 days later to indicate changes in proliferation in response to androgen (FIG. 12). […] Cancer Inst. Monogr. 49, 17-21).

PC3 cells = assay: Proliferation of PC3 cells (BrdU incorporation); format: cell-based, human; settings: 185-9-2 5 μg/ml, 3 days
Excerpt: LNCaP cells were employed initially for all experiments because they are well-differentiated human prostate cancer cells in which ligand-independent activation of the AR by FSK has been characterized (Nazareth et al 1996 J. Biol. Chem. 271, 19900-19907; and Sadar 1999 J. Biol. Chem. 274, 7777-7783). LNCaP cells express endogenous AR and secrete prostate-specific antigen (PSA) (Horoszewicz et al 1983 Cancer Res. 43, 1809-1818). LNCaP cells can be grown either as monolayers in cell culture or as tumors in the well-characterized xenograft model that progresses to androgen independence in castrated hosts (Sato et al 1996 J. Steroid Biochem. Mol. Biol. 58, 139-146; Gleave et al 1991 Cancer Res. 51, 3753-3761; Sato et al 1997 Cancer Res. 57, 1584-1589; and Sadar et al 2002 Mol. Cancer. Ther. 1(8), 629-637). […] Small molecules that specifically target the AR-NTD should have no effect on PC3 cells. […] Reporter specificity may be determined using several alternative reporter gene constructs. […]
The prostate gland is an androgen-dependent organ where androgens are the predominant mitogenic stimulus (Isaacs J T, Scott W W, Coffey D S., Prog Clin Biol Res. 1979; 33:133-44). […] BrdU incorporation was measured 4 days later to indicate changes in proliferation in response to androgen (FIG. 12). […]

LNCaP xenografts = assay: LNCaP subcutaneous xenografts in castrated mice; format: in vivo, NOD-SCID male mice
Experimental: Six to eight-week old male athymic SCID mice were inoculated subcutaneously in the flank region via a 27-gauge needle with a 150 μl suspension of LNCaP or PC3 human prostate cancer cells (1×10^6 cells). The inoculations took place while the animal was under isofluorane anaesthesia. The tumor take rate is approximately 75%. Mice bearing tumors of 100 mm^3 were randomly assigned to treatment groups. Castration was performed as described below. Tumor volume (formula: L×W×H×0.5236) was measured in mice bearing LNCaP subcutaneous tumors that became palpable or visible and at least 40 mm^3. The animals were monitored daily and tumors were measured every 5 days.

AR = molecular target: T1, AR (Homo sapiens, UniProt P10275, T878A); assay: Western blot of AR protein in LNCaP whole cell lysates; format: cell-based; design: LNCaP cells express endogenous AR and secrete prostate-specific antigen (PSA); endogenous in cells; host or cells: LNCaP
T1 sequence (P10275 1-920 T878A): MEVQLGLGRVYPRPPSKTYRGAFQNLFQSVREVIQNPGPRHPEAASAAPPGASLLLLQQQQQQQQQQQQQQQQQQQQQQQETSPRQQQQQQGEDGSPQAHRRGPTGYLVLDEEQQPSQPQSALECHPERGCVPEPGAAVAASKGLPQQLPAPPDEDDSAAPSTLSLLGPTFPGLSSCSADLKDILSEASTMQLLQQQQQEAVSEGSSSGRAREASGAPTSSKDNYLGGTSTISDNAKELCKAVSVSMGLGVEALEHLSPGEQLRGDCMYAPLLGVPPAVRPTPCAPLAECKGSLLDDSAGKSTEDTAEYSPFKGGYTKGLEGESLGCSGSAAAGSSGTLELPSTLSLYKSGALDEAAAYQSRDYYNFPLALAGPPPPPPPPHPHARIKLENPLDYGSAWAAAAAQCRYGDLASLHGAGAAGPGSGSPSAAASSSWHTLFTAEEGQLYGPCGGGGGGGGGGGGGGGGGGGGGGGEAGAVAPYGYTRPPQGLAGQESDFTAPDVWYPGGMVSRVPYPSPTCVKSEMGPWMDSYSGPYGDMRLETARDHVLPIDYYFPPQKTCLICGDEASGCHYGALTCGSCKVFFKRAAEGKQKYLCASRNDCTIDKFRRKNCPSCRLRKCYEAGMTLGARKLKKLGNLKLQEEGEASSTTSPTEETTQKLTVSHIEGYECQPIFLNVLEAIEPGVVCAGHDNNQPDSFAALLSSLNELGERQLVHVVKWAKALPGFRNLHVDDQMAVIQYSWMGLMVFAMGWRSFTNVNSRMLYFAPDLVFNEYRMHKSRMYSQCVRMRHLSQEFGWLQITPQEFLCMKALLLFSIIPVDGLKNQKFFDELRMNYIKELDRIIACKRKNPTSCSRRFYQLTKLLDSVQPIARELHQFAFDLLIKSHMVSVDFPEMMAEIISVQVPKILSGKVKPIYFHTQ

CC(C)(c1ccc(OCC(O)CO)cc1)c1ccc(OCC(O)CCl)cc1 (stereo not shown) [185-9-2, BADGE.HCL.H2O]
androgen-dependent proliferation of LNCaP cells (BrdU incorporation) (LNCaP cells): blocked androgen-dependent proliferation; also recorded: as effective as bicalutamide | proliferation of PC3 cells (BrdU incorporation) (PC3 cells): does NOT block proliferation; also recorded: not to block proliferation | size of LNCaP xenograft tumors, intratumoral injection (LNCaP xenografts; castrated mice, I.T. every 5 days, 20 mg/kg body weight, 20 mg/kg): reduced the size of the tumors; also recorded: significantly reduce the tumors | size of LNCaP xenograft tumors, intravenous injection (LNCaP xenografts; castrated mice, I.V. 50 mg/kg body weight every other day): reduced the size of the tumors | LNCaP tumor volume at the duration (end) of the experiment, intratumoral (LNCaP xenografts; castrated mice, i.t. every 5 days, five doses): 35.4±15.7 mm^3 | LNCaP tumor volume within 2 weeks of i.v. injection (LNCaP xenografts; castrated mice, i.v. 50 mg/kg every other day): 64.3±29.6 mm^3 | apoptosis in xenografts (TUNEL) (LNCaP xenografts; intravenous delivery, IHC): increased apoptosis | proliferation in xenografts (Ki67) (LNCaP xenografts; intravenous delivery, IHC): reduced proliferation | levels of AR protein in whole cell extracts (AR; LNCaP cells treated 3 or 16 hours): does NOT decrease levels of AR protein; also recorded: not decreased | levels of AR protein, long term incubation (AR; LNCaP cells, 48 hrs, presence or absence of DHT): did not reduce levels of AR protein
